Experimental data reported in PubChem BioAssay (NCI).
Values joined by “and” are separate entries in the source; they are usually repeats but may differ in a detail not shown here. Identical values can stand only once.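 Step 1: Grow cells in 96-well plates. Step 2: Expose to compound for 48 hours at 5 concentrations. Step 3: Interpolate endpoints linearly; if unreached, use highest concentration. GI50 = concentration required for 50% inhibition of growth. At the TGI there is no net growth.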

Assays:
Experiment in all cases: inhibition of tumour cell growth, NCI panel, 48 h
NCI-H23 lung = test system: NCI-H23 lung
HOP-62 NSCLC = test system: HOP-62 NSCLC
SF-295 CNS = test system: SF-295 CNS
SN12C renal = test system: SN12C renal
HT29 colon = test system: HT29 colon
OVCAR-4 ovarian = test system: OVCAR-4 ovarian
EKVX NSCLC = test system: EKVX NSCLC
OVCAR-8 ovarian = test system: OVCAR-8 ovarian
NCI-H522 lung = test system: NCI-H522 lung
NCI-H460 lung = test system: NCI-H460 lung
CCRF-CEM leukemia = test system: CCRF-CEM leukemia
SW-620 colon = test system: SW-620 colon
U251 CNS = test system: U251 CNS
A549 NSCLC = test system: A549 NSCLC
HL-60(TB) leukemia = test system: HL-60(TB) leukemia

Structure (SMILES): CC(=O)c1cccc(NC(=O)C(=O)C(C(=O)c2ccccc2F)C2OC(=O)c3ccccc32)c1 (centres undefined)
- TGI (NCI-H23 lung): > 100 µM
- TGI (HOP-62 NSCLC): > 100 µM
- TGI (SF-295 CNS): > 100 µM
- TGI (SN12C renal): > 100 µM
- TGI (HT29 colon): > 100 µM
- TGI (OVCAR-4 ovarian): > 100 µM
- TGI (EKVX NSCLC): > 100 µM
- TGI (OVCAR-8 ovarian): > 100 µM
- TGI (NCI-H522 lung): 56.7 µM
- TGI (NCI-H460 lung): > 100 µM
- TGI (CCRF-CEM leukemia): 49.6 µM
- TGI (SW-620 colon): > 100 µM
- TGI (U251 CNS): 53.2 µM
- TGI (A549 NSCLC): > 100 µM
- TGI (HL-60(TB) leukemia): 64.8 µM

Structure (SMILES): CCOC(=O)C1=NN(c2ccccc2)C2=CC(C)=NN(C)C(=S)N21
- TGI (NCI-H23 lung): > 100 µM
- TGI (SF-295 CNS): > 100 µM
- TGI (SN12C renal): > 100 µM
- TGI (HT29 colon): > 100 µM
- TGI (OVCAR-4 ovarian): > 100 µM
- TGI (EKVX NSCLC): > 100 µM
- TGI (OVCAR-8 ovarian): > 100 µM
- TGI (NCI-H522 lung): > 100 µM
- TGI (NCI-H460 lung): > 100 µM
- TGI (CCRF-CEM leukemia): > 100 µM
- TGI (SW-620 colon): > 100 µM
- TGI (U251 CNS): > 100 µM
- TGI (A549 NSCLC): > 100 µM
- TGI (HL-60(TB) leukemia): > 100 µM

Structure (SMILES): O=C1CCc2cc3c(cc21)CC1(Cc2cc4c(cc2C1)CCCC4)C3
- TGI (NCI-H23 lung): > 100 µM
- TGI (HOP-62 NSCLC): > 100 µM
- TGI (SF-295 CNS): > 100 µM
- TGI (SN12C renal): > 100 µM
- TGI (HT29 colon): > 100 µM
- TGI (OVCAR-4 ovarian): > 100 µM
- TGI (EKVX NSCLC): > 100 µM
- TGI (OVCAR-8 ovarian): > 100 µM
- TGI (NCI-H522 lung): > 100 µM
- TGI (NCI-H460 lung): > 100 µM
- TGI (CCRF-CEM leukemia): > 100 µM
- TGI (SW-620 colon): > 100 µM
- TGI (U251 CNS): > 100 µM
- TGI (A549 NSCLC): > 100 µM
- TGI (HL-60(TB) leukemia): > 100 µM

Structure (SMILES): CC[C@](C)(O)C(=O)O[C@H]1C(=O)O[C@@H]2C[C@H]3C(C)=C[C@H](O)[C@@H](O)[C@]3(C)[C@H]3[C@@]4(O)OC[C@]32[C@@H]1[C@@H](C)[C@H]4O
- TGI (NCI-H23 lung): 13.5 µM
- TGI (HOP-62 NSCLC): 157 µM
- TGI (SF-295 CNS): 116 µM
- TGI (SN12C renal): 310 µM
- TGI (HT29 colon): 120 µM
- TGI (OVCAR-4 ovarian): 185 µM
- TGI (EKVX NSCLC): 50.3 µM
- TGI (OVCAR-8 ovarian): 136 µM
- TGI (NCI-H522 lung): 9.8 µM
- TGI (NCI-H460 lung): 31.3 µM
- TGI (CCRF-CEM leukemia): 23.9 µM
- TGI (SW-620 colon): 61.7 µM
- TGI (U251 CNS): 70.5 µM
- TGI (A549 NSCLC): 292 µM
- TGI (HL-60(TB) leukemia): 43.1 µM

Structure (SMILES): COc1cc(C2c3cc4c(cc3[C@@H](NCCCN(C)C)[C@H]3COC(=O)C23)OCO4)cc(OC)c1O (some centres undefined)
- GI50 (NCI-H23 lung): 0.139 µM and 0.291 µM
- TGI (NCI-H23 lung): 0.759 µM and 1.56 µM
- GI50 (HOP-62 NSCLC): 0.0933 µM and 0.271 µM
- TGI (HOP-62 NSCLC): 0.297 µM and 0.925 µM
- TGI (SF-295 CNS): 0.632 µM and 1.42 µM
- GI50 (SN12C renal): 0.117 µM and 0.333 µM
- TGI (SN12C renal): 0.502 µM and 1.14 µM
- TGI (HT29 colon): > 37.5 µM and 6.09 µM
- TGI (EKVX NSCLC): 1.58 µM and 1.29 µM
- GI50 (OVCAR-8 ovarian): 0.333 µM and 1.26 µM
- TGI (OVCAR-8 ovarian): 1.2 µM and 5.09 µM
- TGI (NCI-H522 lung): 1.65 µM and 2.47 µM
- TGI (NCI-H460 lung): 0.632 µM and 0.336 µM
- TGI (SW-620 colon): 1.18 µM and 4.27 µM
- TGI (U251 CNS): 2.15 µM and 1.9 µM
- GI50 (A549 NSCLC): 0.03 µM
- TGI (A549 NSCLC): 0.712 µM
- TGI (HL-60(TB) leukemia): 0.231 µM and 0.245 µM

Structure (SMILES): CCOC(=O)/C=C/c1c[nH]c(C(=O)OCC)c1
- TGI (NCI-H23 lung): > 100 µM
- TGI (HOP-62 NSCLC): > 100 µM
- TGI (SF-295 CNS): > 100 µM
- TGI (SN12C renal): > 100 µM
- TGI (HT29 colon): > 100 µM
- TGI (OVCAR-4 ovarian): > 100 µM
- TGI (EKVX NSCLC): > 100 µM
- TGI (OVCAR-8 ovarian): > 100 µM
- TGI (NCI-H522 lung): > 100 µM
- TGI (NCI-H460 lung): > 100 µM
- TGI (CCRF-CEM leukemia): > 100 µM
- TGI (SW-620 colon): > 100 µM
- TGI (U251 CNS): > 100 µM
- TGI (A549 NSCLC): > 100 µM
- TGI (HL-60(TB) leukemia): > 100 µM

Structure (SMILES): Nc1nc(Cl)cc(NCCCCCCCCCCCCNc2cc(Cl)nc(N)n2)n1
- TGI (NCI-H23 lung): 12.6 µM
- TGI (HOP-62 NSCLC): 35.2 µM
- TGI (SF-295 CNS): 32.7 µM
- TGI (SN12C renal): > 100 µM
- TGI (HT29 colon): > 100 µM
- TGI (OVCAR-4 ovarian): 75.2 µM
- TGI (EKVX NSCLC): > 100 µM
- TGI (OVCAR-8 ovarian): 44 µM
- TGI (NCI-H460 lung): > 100 µM
- TGI (CCRF-CEM leukemia): > 100 µM
- TGI (SW-620 colon): > 100 µM
- TGI (U251 CNS): 20.1 µM
- TGI (A549 NSCLC): > 100 µM
- TGI (HL-60(TB) leukemia): > 100 µM

Structure (SMILES): ClCc1ccc2ccc3ccc(CCl)nc3c2n1
- TGI (NCI-H23 lung): 7.88 µM
- TGI (HOP-62 NSCLC): 15.4 µM
- TGI (SF-295 CNS): 5.69 µM
- TGI (HT29 colon): 6.28 µM
- TGI (OVCAR-4 ovarian): 14.5 µM
- TGI (EKVX NSCLC): > 47.5 µM
- TGI (NCI-H522 lung): 3.44 µM
- TGI (NCI-H460 lung): 19.6 µM
- TGI (CCRF-CEM leukemia): 8.64 µM
- TGI (SW-620 colon): 7.79 µM
- TGI (U251 CNS): 3.78 µM
- TGI (A549 NSCLC): > 42.2 µM
- TGI (HL-60(TB) leukemia): 4.43 µM
